Data: US20210275480A1, “COMPOSITIONS AND METHODS FOR THE REDUCTION OR TREATMENT OF FIBROSIS” (AXCELLA HEALTH INC., priority 2018, published 2021)

Key:
[1] = tested on: LX-2 hepatic stellate cells; assay: TGFβ1-induced fibrogenic gene expression (Col1a1, Acta2, Timp2) in LX-2 hepatic stellate cells, qPCR; format: cell-based, human
Excerpt: Hepatic stellate cells in a healthy liver are in the space of Disse, between the hepatocytes and liver sinusoidal endothelial cells. In response to liver injury hepatic stellate cells become activated, proliferative and contractile, increase production of aSMA, secretion of type I and III collagens and specific MMP and TIMP proteins. LX-2 cells were selected as a model of activated hepatic stellate cells and used to test whether specific amino acid compositions would reduce fibrogenic gene expression induced with TGFβ1.
LX-2 hepatic stellate cells (Millipore) were seeded on day 0 at 1.67E4 cells per well in collagen I coated 96-well microplates (ThermoFisher) in Dulbecco's Modified Eagle Medium (DMEM, Corning) supplemented with 2% heat inactivated fetal bovine serum (HI-FBS, HyClone) and 0.2% Primocin (InVivoGen) and incubated overnight at 37° C., 5% CO2. […] Combinations containing N-acetylcysteine were dosed with 10 mM. Cells were pretreated for 6 hours at 37° C., 5% CO2. After pretreatment, TGFβ1 (R&D Systems) or vehicle was spiked into each well for a final concentration of 5 ng/mL and cells were incubated under this stimulus for a further 12 hours at 37° C., 5% CO2.
After 12 hour incubation, RNA extraction and quantitative PCR was conducted on lysates to determine collagen-1a1 expression normalized to β-actin housekeeping expression using the ΔΔCt method using TaqMan primer probes (Integrated DNA Technologies: Col1A1, Hs.PT.58.15517795; Actb, Hs.PT.39a.22214847; Acta2, Hs.PT.56a.24853961; Timp2, Hs.PT.58.14780594).

[2] = tested on: Col1a1 gene expression, primary human hepatic stellate cells; assay: Col1a1 gene expression in TGFβ1-stimulated primary human hepatic stellate cells; format: cell-based; conditions: primary human hepatic stellate cells, three healthy donors, TGFβ1 3 ng/mL 24 h; summary in words
Experimental: (§1) Primary human hepatic stellate cells were obtained from Samsara Sciences. Cells were grown in Complete HSC Medium to ˜80% confluence in T75 or T150 flasks below passage 10 were seeded into sterile, collagen I coated, 96-well optical plastic microplates (ThermoScientific, 152036) and incubated overnight at 37° C., 5% CO2 in a humidified incubator in DMEM with 2% Fetal Bovine Serum and 1% Antibiotic-Antimycotic. After the overnight incubation, plates are washed and pretreated with medium±single amino acid dropout, 1×HMDB DMEM±supplemental amino acid dose for 10.5 hours. After 10.5 hour pretreatment, the same pretreatment medium supplemented with 3 ng/mL TGFβ1, was applied and incubated for 24 hours at 37° C., 5% CO2. After 24 hour stimulus, supernatant was removed, RNA was extracted and gene expression was evaluated using the ΔΔCq method within each single amino acid dropout and supplementation by normalizing to its own 1×HMDB concentration.

[3] = tested on: procollagen Iα1 secretion, primary human hepatic stellate cells; assay: Procollagen Iα1 secretion by TGFβ1-stimulated primary human hepatic stellate cells, ELISA; format: cell-based; conditions: primary human hepatic stellate cells, three healthy donors, TGFβ1 3 ng/mL 24 h; summary in words
Experimental: as §1
Human Procollagen 1α1 was measured from the supernatant by ELISA (Human ProCollagen I alpha 1 DuoSet ELISA, R&D Systems) at 1/100 dilution in 1× Reagent Diluent (Reagent Ancillary Kit 2, R&D Systems).
Tables 32, 33, 33-1, 33-2, 33-3, and 33-4 show the fold change in procollagen Iα1 in primary human hepatic stellate cells from three different healthy donors normalized to their respective baseline amino acid conditions. Statistical significance calculated by one-way

[4] = tested on: Hsp47 gene expression, primary human hepatic stellate cells; assay: Hsp47 gene expression in TGFβ1-stimulated primary human hepatic stellate cells; format: cell-based; conditions: primary human hepatic stellate cells, three healthy donors, TGFβ1 3 ng/mL 24 h; summary in words
Experimental: Primary human hepatic stellate cells were obtained from Samsara Sciences based on the following criteria for selecting donors: adult age (between 18 and 50 years), normal BMI (>18.5 and <25), and absence of confounding liver disease. Cells grown in Complete HSC Medium to ˜80% confluence in T75 or T150 flasks below passage 10 were seeded into sterile, collagen I coated, 96-well optical plastic microplates (ThermoScientific, 152036) at 6000 cells per well (1250 cells per cm2) and incubated overnight at 37° C., 5% CO2 in a humidified incubator in DMEM with 2% Fetal Bovine Serum and 1% Antibiotic-Antimycotic.
After the overnight incubation, plates were removed from the incubator and the medium was gently pipetted off and washed twice with 150 μL per well DPBS. The DPBS was removed and the pretreatment medium (±single amino acid dropout, 1×HMDB DMEM+1% Antibiotic-Antimycotic, 10 mM HEPES, ±supplemental amino acid dose; see experiment for medium composition) was applied to the cells at 150 μL per well. Plates were returned to the incubator for 10.5 hours.
After 10.5 hour pretreatment, the medium was removed from the cells, and the same pretreatment medium, now supplemented with 3 ng/mL TGFβ1, was applied. Each plate contained 3 ng/mL TGFβ1 in 1× human plasma amino acid (HMDB or PAA) concentration medium, 0 ng/mL in 1×HMDB, and 3 ng/mL TGFβ1+20 μM Silybin in 1×HMDB to serve as controls. Plates were then incubated for 24 hours at 37° C., 5% CO2.
After 24 hour stimulus, supernatant was removed and frozen at −80° C. in two separate aliquots. The cells were then washed with 125 μL per well Buffer FCW (FastLane Cell Multiplex NR Kit, Qiagen, 216713). The wash buffer was immediately removed and 50 μL of Cell Processing Mix (containing genomic DNA Wipeout buffer) was applied to lyse cells, incubating for 10 minutes at room temperature. RNA lysate was then transferred to 96-well qPCR plates, sealed, and gDNA was digested on thermal cycler at 75° C. for 5 minutes. RNA lysate was frozen at −80° C.
Each 20 μL one-step RT-qPCR reaction contained 4 μL of RNA lysate. Gene expression of Hsp47, and Gapdh were multiplexed using the HEX, and FAM fluorescent channels, respectively, with commercially available primer-probe mixes (the Human Hsp47 Primer-Probe Set, HEX; and the Human Gapdh Primer-Probe Set, FAM from IDT). Gene expression was evaluated using the ΔΔCq method within each single amino acid dropout and supplementation by normalizing to its own 1×HMDB concentration.

[5] = LX-2 cells with TGFβ1, individual amino acid at 1X HMDB derived concentration
[6] = LX-2 cells with TGFβ1, individual amino acid at 50X HMDB derived concentration
[7] = LX-2 cells, TGFβ1 5 ng/mL 12 h, combinations at 40× HMDB, N-acetylcysteine 10 mM, normalized to β-actin

| Compound | Col1a1 gene expression, mean [1, 5] | Col1a1 gene expression, mean [1, 6] | Col1a1 gene expression, mean ([1]; LX-2 cells with TGFβ1, individual amino acid at 50X HMDB derived concentration, listed as cysteine) | Col1a1 gene expression [2] | procollagen Iα1 secretion [3] | Hsp47 gene expression [4] | Acta2 gene expression, mean [1, 7] | Timp2 gene expression, mean [1, 7] | Col1a1 gene expression, mean ([1]; LX-2 cells, TGFβ1 5 ng/mL 12 h, combinations at 40× HMDB, N-acetylcysteine 10 mM, normalized to β-actin (ΔΔCt)) | Col1a1 gene expression, mean ([1]; LX-2 cells, TGFβ1 5 ng/mL 12 h, combinations at 40× HMDB, N-acetylcysteine 10 mM, normalized to β-actin (ΔΔCt), listed as N-acetylcysteine) | Timp2 gene expression, mean ([1]; LX-2 cells, TGFβ1 5 ng/mL 12 h, combinations at 40× HMDB, N-acetylcysteine 10 mM, normalized to β-actin, listed as N-acetylcysteine) |
| --- | --- | --- | --- | --- | --- | --- | --- | --- | --- | --- | --- |
| N[C@@H](CS)C(=O)O [CYS, cysteine] | 2.491 | 1.695 | significant decrease |  |  |  |  |  |  |  |  |
| N=C(N)NCCC[C@H](N)C(=O)O [ARG, arginine] | 1.620 | 1.970 |  | did not significantly change | significantly increased procollagen Iα1 secretion in two of three donors | significantly increased Hsp47 gene expression in two of three donors |  |  |  |  |  |
| CC(C)C[C@H](N)C(=O)O [LEU, leucine] | 1.901 | 2.372 |  |  |  | did not significantly change |  |  |  |  |  |
| NC(=O)CC[C@H](N)C(=O)O [GLN, glutamine] | 2.340 | 2.194 |  |  |  | significantly increased Hsp47 gene expression in one of three donors |  |  |  |  |  |
| CC(=O)N[C@@H](CS)C(=O)O [NAC, N-acetylcysteine] |  |  |  | significantly reduced Col1a1 gene expression in all three donors | significantly decrease procollagen Iα1 secretion in two of the three donors |  | 0.647 | 1.076 | 1.659 | reduced | reduced |
